N#Cc1ccc(C(c2ccc(C#N)cc2)n2cncn2)cc1
solubility (mole fraction)
Conditions | 283.15 K | 288.15 K | 293.15 K | 298.15 K | 303.15 K | 308.15 K | 313.15 K | 318.15 K | 323.15 K
in THF | 0.0164 | 0.0184 | 0.0206 | 0.0229 | 0.0254 | 0.0281 | 0.0309 | 0.034 | 0.0373
in acetone | 0.0147 | 0.0168 | 0.019 | 0.0214 | 0.0241 | 0.027 | 0.0301 | 0.0335 | 0.0371
in acetonitrile | 0.00638 | 0.0077 | 0.00923 | 0.011 | 0.0131 | 0.0154 | 0.018 | 0.021 | 0.0244
in ethanol | 0.000456 | 0.000586 | 0.000748 | 0.000946 | 0.00119 | 0.00148 | 0.00183 | 0.00225 | 0.00275
in ethyl acetate | 0.00527 | 0.00609 | 0.007 | 0.00802 | 0.00914 | 0.0104 | 0.0117 | 0.0132 | 0.0148
in methanol | 0.00108 | 0.00133 | 0.00163 | 0.00198 | 0.00239 | 0.00287 | 0.00342 | 0.00406 | 0.00479
in methyl acetate | 0.0105 | 0.0119 | 0.0135 | 0.0151 | 0.017 | 0.019 | 0.0211 | 0.0234 | 0.0259
in n-propanol | 0.000351 | 0.000461 | 0.0006 | 0.000773 | 0.000989 | 0.00125 | 0.00158 | 0.00197 | 0.00245

Source: BigSolDB 2.1
